Laboratory results as given in PubChem BioAssay (NCI).
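Five compound concentrations were applied to cells in 96-well plates for 48 hours; endpoints were derived by simple linear interpolation of the resulting dose-response curve. TGI: total growth inhibition.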

Tests used:
Assay in all cases: DTP human tumour cell line panel, 48 h
[1] = test system: HOP-92 NSCLC
[2] = test system: SF-539 CNS
[3] = test system: COLO 205 colon
[4] = test system: SR leukemia
[5] = test system: K-562 leukemia
[6] = test system: EKVX NSCLC
[7] = test system: A549 NSCLC
[8] = test system: OVCAR-4 ovarian
[9] = test system: SF-268 CNS
[10] = test system: NCI-H23 lung
[11] = test system: OVCAR-5 ovarian
[12] = test system: IGROV1 ovarian
[13] = test system: SK-MEL-2 melanoma
[14] = test system: SK-MEL-28 melanoma
[15] = test system: SNB-19 CNS
[16] = test system: OVCAR-8 ovarian
[17] = test system: HL-60(TB) leukemia
[18] = test system: SK-MEL-5 melanoma
[19] = test system: TK-10 renal
[20] = test system: M14 melanoma

Measured: TGI

O=C1C(Cl)N(c2ccc([N+](=O)[O-])cc2)C1c1c[nH]c2ccccc12 (stereo not given)
> 100 µM: [1] | [2] | [3] | [4] | [5] | [6] | [7] | [8] | [9] | [10] | [11] | [12] | [13] | [14] | [15] | [16] | [17] | [18] | [19] | [20]

O=c1c2cccnc2oc2c(Cl)cc(-c3nn[nH]n3)cc12
> 100 µM: [1] | [2] | [3] | [4] | [5] | [6] | [7] | [8] | [9] | [10] | [11] | [12] | [13] | [14] | [15] | [16] | [17] | [18] | [19] | [20]
